Results reported in patent US20200017496A1 (priority 2017, published 2020).
Like-named read-outs stand apart in the source and are kept apart here.

Experiments:
[1] = test system: Escherichia coli (ECO) isolates; assay: MIC of compounds alone and combined with antibacterials, broth microdilution (CLSI); assay type: cell-based; settings: for MIC: Escherichia coli, ATB alone
Description: (§1) Method 2: MIC of Compounds Alone and Combined with Antibacterials Against Bacterial Isolates.
(§2) Compounds of the present invention were assessed against genotyped bacterial strains (Table 3, 4) alone or in combination with an antibacterial (Table 2). […] Log phase bacterial suspensions were adjusted to a final density of 5·10^5 CFU/mL in cation-adjusted Mueller-Hinton broth (ca-MHB; Becton-Dickinson and Company) and added to each well (98 μL). Microplates were incubated for 16-20 h at 35° C. in ambient air. The MIC of the compounds was defined as the lowest concentration of said compounds that prevented bacterial growth as read by visual inspection. The MIC of ATB at each compound concentration was defined as the lowest concentration of ATB that prevented bacterial growth as read by visual inspection.

[2] = test system: Enterobacter cloacae (ECL) isolates; assay: as above; assay type: cell-based; settings: for MIC: Enterobacter cloacae, ATB alone
Description: as §1, §2

CC(C)(O/N=C(\C(=O)N[C@@H]1C(=O)N2C(C(=O)[O-])=C(C[n+]3ccccc3)CS[C@H]12)c1csc(N)n1)C(=O)O [CAZ, Ceftazidime]
0.5 µg/mL: MIC ATB in combination ([1]; ECO UFR211, AF1 @ 4 μg/mL) | MIC ([1]; strain ECO 4133 (TEM-30, OXA-1)) | MIC ([1]; strain ECO 5302 (TEM-1, OXA-1)) | MIC ([1]; strain ECO 131119 (TEM-1, OXA-48)) | MIC ([1]; strain ECO RGN238 (OXA-1)) | MIC ([1]; strain ECO UFR15 (TEM-1, OXA-48)) | MIC ATB in combination ([2]; ECL 200322, AF1 @ 4 μg/mL) | MIC ATB in combination ([2]; ECL 200322, AF1 @ 8 μg/mL) | MIC ATB in combination ([2]; ECL UFR12, AF1 @ 4 μg/mL) | MIC ATB in combination ([2]; ECL UFR13, AF1 @ 4 μg/mL) | MIC ATB in combination ([2]; ECL UFR13, AF1 @ 8 μg/mL) | MIC ATB in combination ([2]; ECL UFR70, AF1 @ 8 μg/mL) | MIC ATB in combination ([2]; ECL UFR194, AF1 @ 4 μg/mL) | MIC ATB in combination ([2]; ECL UFR200, AF1 @ 4 μg/mL) | MIC ATB in combination ([2]; strain ECL UFR195, antibacterial combined with AF1 @ 8 μg/mL) | MIC ATB in combination ([2]; strain ECL UFR196, antibacterial combined with AF1 @ 8 μg/mL) | MIC ATB in combination ([2]; strain ECL UFR197, antibacterial combined with AF1 @ 8 μg/mL)
32 µg/mL: MIC ([1]; strain ECO UFR175 (TEM-1, KPC-2, OXA-9)) | MIC ([1]; strain ECO UFR210 (SHV-12)) | MIC ATB in combination ([2]; ECL 260323, AF1 @ 8 μg/mL)
8 µg/mL: MIC ([1]; strain ECO 190314 (CTX-M-1)) | MIC ([1]; strain ECO 200344 (CTX-M-1)) | MIC ([1]; strain ECO UFR174 (TEM-1, KPC-2, OXA-1)) | MIC ([1]; strain ECO UFR186 (TEM-1, CTX-M-14, OXA-48)) | MIC ([1]; strain ECO UFR187 (CTX-M-15, OXA-48)) | MIC ATB in combination ([2]; ECL 200138, AF1 @ 4 μg/mL) | MIC ATB in combination ([2]; ECL 260033, AF1 @ 4 μg/mL)
> 256 µg/mL: MIC ([1]; strain ECO UFR185 (OXA-48), read-out: MIC) | MIC ([2]; strain ECL UFR198 (TEM-1, SHV-12, CTX-M-15, DHA-1, OXA-1, OXA-48)) | MIC ([2]; strain ECL 200138 (AmpC)) | MIC ([2]; strain ECL 260323 (AmpC)) | MIC ([2]; strain ECL UFR13 (TEM-1, SHV-12, CTX-M-9, OXA-48)) | MIC ([2]; strain ECL UFR14 (TEM-1, SHV-12, CTX-M-15, DHA-1, OXA-1, OXA-48)) | MIC ([2]; strain ECL UFR196 (TEM-1, CTX-M-15, OXA-1, OXA-48)) | MIC ([2]; strain ECL UFR200 (TEM-1, SHV-12, KPC-2))
16 µg/mL: MIC ([1]; strain ECO 190457 (CTX-M-15, OXA-1)) | MIC ([1]; strain ECO 260304 (CTX-M-15)) | MIC ATB in combination ([2]; ECL 260253, AF1 @ 4 μg/mL) | MIC ATB in combination ([2]; ECL UFR60, AF1 @ 4 μg/mL)
256 µg/mL: MIC ([2]; strain ECL 190310 (AmpC))
1 µg/mL: MIC ATB in combination ([2]; ECL 260508, AF1 @ 4 μg/mL) | MIC ATB in combination ([2]; ECL UFR14, AF1 @ 8 μg/mL) | MIC ATB in combination ([2]; ECL UFR84, AF1 @ 8 μg/mL) | MIC ATB in combination ([2]; ECL UFR85, AF1 @ 4 μg/mL) | MIC ([2]; strain ECL UFR194 (OXA-48)) | MIC ATB in combination ([2]; strain ECL UFR195, antibacterial combined with AF1 @ 4 μg/mL) | MIC ATB in combination ([2]; strain ECL UFR197, antibacterial combined with AF1 @ 4 μg/mL)
<0.25 µg/mL: MIC ATB in combination ([1]; ECO UFR218, AF1 @ 8 μg/mL) | MIC ATB in combination ([2]; ECL 190408, AF1 @ 8 μg/mL) | MIC ATB in combination ([2]; ECL 260033, AF1 @ 8 μg/mL)
<=0.25 μg/mL: MIC ATB in combination ([1]; ECO UFR187, AF1 @ 8 μg/mL) | MIC ATB in combination ([1]; ECO UFR189, AF1 @ 4 μg/mL) | MIC ATB in combination ([1]; ECO UFR189, AF1 @ 8 μg/mL) | MIC ATB in combination ([1]; ECO UFR190, AF1 @ 4 μg/mL) | MIC ATB in combination ([1]; ECO UFR190, AF1 @ 8 μg/mL) | MIC ATB in combination ([1]; ECO UFR191, AF1 @ 4 μg/mL) | MIC ATB in combination ([1]; ECO UFR191, AF1 @ 8 μg/mL) | MIC ATB in combination ([1]; ECO UFR207, AF1 @ 4 μg/mL) | MIC ATB in combination ([1]; ECO UFR207, AF1 @ 8 μg/mL) | MIC ATB in combination ([1]; ECO UFR209, AF1 @ 4 μg/mL) | MIC ATB in combination ([1]; ECO UFR209, AF1 @ 8 μg/mL) | MIC ATB in combination ([1]; ECO UFR210, AF1 @ 4 μg/mL) | MIC ATB in combination ([1]; ECO UFR210, AF1 @ 8 μg/mL) | MIC ATB in combination ([1]; ECO UFR211, AF1 @ 8 μg/mL) | MIC ATB in combination ([1]; ECO UFR212, AF1 @ 8 μg/mL) | MIC ATB in combination ([1]; ECO UFR218, AF1 @ 4 μg/mL) | MIC ATB in combination ([2]; ECL 190408, AF1 @ 4 μg/mL) | MIC ATB in combination ([2]; ECL 260508, AF1 @ 8 μg/mL) | MIC ATB in combination ([2]; ECL P99, AF1 @ 8 μg/mL) | MIC ATB in combination ([2]; ECL UFR12, AF1 @ 8 μg/mL) | MIC ATB in combination ([2]; ECL UFR85, AF1 @ 8 μg/mL) | MIC ATB in combination ([2]; ECL UFR194, AF1 @ 8 μg/mL) | MIC ATB in combination ([2]; ECL UFR200, AF1 @ 8 μg/mL)
512 µg/mL: MIC ([2]; strain ECL 260033 (AmpC))
2 µg/mL: MIC ATB in combination ([1]; ECO UFR208, AF1 @ 8 μg/mL) | MIC ([1]; strain ECO UFR86 (ompC-, ompF-), read-out: MIC) | MIC ATB in combination ([2]; ECL 190310, AF1 @ 8 μg/mL) | MIC ATB in combination ([2]; ECL 200138, AF1 @ 8 μg/mL) | MIC ATB in combination ([2]; ECL NEM146383, AF1 @ 4 μg/mL) | MIC ATB in combination ([2]; ECL NEM146383, AF1 @ 8 μg/mL) | MIC ATB in combination ([2]; ECL P99, AF1 @ 4 μg/mL) | MIC ATB in combination ([2]; ECL UFR14, AF1 @ 4 μg/mL) | MIC ATB in combination ([2]; ECL UFR70, AF1 @ 4 μg/mL) | MIC ([2]; strain ECL UFR12 (CTX-M-9, OXA-48)) | MIC ATB in combination ([2]; strain ECL UFR196, antibacterial combined with AF1 @ 4 μg/mL)
4 µg/mL: MIC ATB in combination ([1]; ECO UFR208, AF1 @ 4 μg/mL) | MIC ATB in combination ([1]; ECO UFR212, AF1 @ 4 μg/mL) | MIC ([1]; strain ECO 190549 (CTX-M-1)) | MIC ([1]; strain ECO UFR191 (TEM-1, CTX-M-24, OXA-48)) | MIC ATB in combination ([2]; ECL 2185D, AF1 @ 8 μg/mL) | MIC ATB in combination ([2]; ECL 190310, AF1 @ 4 μg/mL) | MIC ATB in combination ([2]; ECL 260253, AF1 @ 8 μg/mL) | MIC ATB in combination ([2]; ECL UFR60, AF1 @ 8 μg/mL) | MIC ATB in combination ([2]; ECL UFR84, AF1 @ 4 μg/mL) | MIC ATB in combination ([2]; strain ECL UFR198, antibacterial combined with AF1 @ 4 μg/mL) | MIC ATB in combination ([2]; strain ECL UFR198, antibacterial combined with AF1 @ 8 μg/mL)
